The source of these data is patent publication US20250296963A1, “PEPTIDE HAVING ANTIMICROBIAL ACTIVITY” (priority 2022, published 2025).

In brackets after ≈: the same amount, converted by molar mass. Where two headings read alike, the source gives them in different places. Where no end group is shown, it is not given here.

What all share (type): cell-based
The subject of one assay is C. albicans. The assay is described as follows: Peptide stability in bodily fluids (sheep blood, urine), MIC against C. albicans. As to conditions: Candida albicans, read-out: Minimal inhibitory concentration. The method, then:
In vitro experiments were conducted to test the behavior of the peptides as disclosed herein in blood, against C. albicans. C. albicans isolates from human blood were used (DSMZ 6569). The peptide according to the SEQ ID N° 1 was adjusted to a concentration of 1 mg/ml and mixed with sheep blood in equal parts. This mixture was incubated overnight at 30° C. To remove solid parts of the blood, the mixture was centrifuged and the obtained plasma supernatant was used for MICs.
In vitro experiments were conducted to test the behavior of the peptides as disclosed herein in urine, against C. albicans. The peptide according to the SEQ ID N° 1 was adjusted to a concentration of 1 mg/ml and mixed with synthetic urine or human urine in equal parts. These mixtures were incubated overnight at 30° C. To remove solid parts of the urine, the mixture was centrifuged and the obtained supernatant was used for MICs.

The next assay has as its system Botrytis cinerea. The assay is described as follows: microbe, parasite or virus in culture. The protocol:
(§1) The antimicrobial potential of the peptides described herein was compared with the activity of two other AMPs, TcAMP1 and TcAMP2 as discussed in WO1998027805, and antibiotics or fungicides. Comparative MIC assays were carried out against several bacterial and fungal species (Table 1).
(§2) Peptides according to SEQ ID N° 1, SEQ ID N° 2, SEQ ID N° 4, SEQ ID N° 6, and SEQ ID N° 7 were serially diluted in order to create a concentration sequence ranging from 0.39 μg/ml to […].
(§3) Pantoea, Staphylococcus, and Listeria were cultured in Trypticase Soy Broth (TSY) medium consisting of 1.7% casein peptone, 0.3% soy peptone, 0.25% glucose, 0.5% NaCl, 0.25% K2HPO4 and optionally 1.5% agar. Candida cells were cultured in Yeast Extract Peptone Dextrose (YPD) broth medium consisting of 1% yeast extract, 2% peptone, 2% glucose, and optionally 2% agar. Ceratocystis, Botrytis, Leptosphaeria, Mycosphaerella, Sclerotinia, and Verticillium were cultured in Potato Dextrose Agar (PDA) medium consisting of 2.4% Difco pre-mix broth and optionally 1.5% agar.
(§4) For the MIC assay bacteria and fungi were grown on agar plates with their respective media. Pre-cultures were prepared by inoculating either single bacterial colonies or small pieces of fungi in 5 ml of the respective liquid medium. The optical density (OD) at 600 nm was measured after one to five days and adjusted to an OD600 of 1. This cell suspension was used to prepare 1:500 dilutions, corresponding to approximately 2×10^6 microbial cells per ml.
(§5) To evaluate MICs, 96-well plates were prepared with the test antimicrobial peptides. Each well contained 100 μl microbial cell culture, 90 μl culture medium, and 10 μl peptide or control at the corresponding dilution. The plates were incubated overnight (ON) at the optimal growth temperature for each tested organism (Table 1). Results were visually evaluated and MICs determined based on growth or no-growth.
(§6) MIC assays were conducted in at least two independent replicates and with different peptide starting concentrations.

Another assay deals with Candida albicans. Put plainly: microbe, parasite or virus in culture. The method, then: as §1, §2, §3, §4, §5, §6
In another assay the test system is Leptosphaeria maculans. Put plainly: microbe, parasite or virus in culture. The protocol:
as §1, §2, §3, §4, §5, §6

Another assay has as its system Mycosphaerella pinodes. Put plainly: microbe, parasite or virus in culture. The protocol: as §1, §2, §3, §4, §5, §6
In the next assay the test system is Sclerotinia sclerotiorum. Put plainly: microbe, parasite or virus in culture. The protocol: as §1, §2, §3, §4, §5, §6
The next assay relates to Verticillium dahliae. The assay is described as follows: microbe, parasite or virus in culture. The protocol: as §1, §2, §3, §4, §5, §6
Another assay has as its system Ceratosystis paradoxa. Put plainly: organism not typed. The method, then: as §1, §2, §3, §4, §5, §6
For assay [1], the system named is Listeria monocytogenes. The assay is described as follows: microbe, parasite or virus in culture. The method, then:
as §1, §2, §3, §4, §5, §6

For assay [2], the system named is Staphylococcus aureus MRSA. The assay is described as follows: microbe, parasite or virus in culture. The protocol:
as §1, §2, §3, §4, §5, §6

For assay [3], the system named is Listeria monocytogenes. The assay is described as follows: Cow milk assay, MIC against Listeria monocytogenes. As to conditions: control, milk-free (and reference drug), read-out: Minimal inhibitory concentration. The method, then: In vitro experiments were conducted to test the behavior of the peptides as disclosed herein in 3.5% fat cow milk, against Listeria monocytogenes. The peptide according to the SEQ ID N° 1 was adjusted to a concentration of 1 mg/ml and mixed with cow milk in equal parts. This mixture was incubated overnight at 37° C. To remove solid parts of the milk, the mixture was centrifuged and the obtained supernatant was used for MICs.

Another assay relates to Pantoea agglomerans. The method, then: as §1, §2, §3, §4, §5, §6
The test system of the next assay is E. coli. The assay is described as follows: MIC assay, E. coli. The protocol:
as §1, §2, §4, §5, §6

In assay [4] the test system is several bacterial and fungal species. The assay is described as follows: Comparative MIC assays, all tested organisms. As to conditions: bacterial species of Table 3, all tested species. The protocol: as §1, §2, §3
For the MIC assay bacteria and fungi were grown on agar plates with their respective media. […] The optical density (OD) at 600 nm was measured after one to five days and adjusted to an OD600 of 1. […]
To evaluate MICs, 96-well plates were prepared with the test antimicrobial peptides. […] Results were visually evaluated and MICs determined based on growth or no-growth. […]

The mark [5] stands for this setting: Listeria monocytogenes DSM 102976, TSY, 37° C., overnight.
Where [6] appears, read: Staphylococcus aureus MRSA DSM 11729, TSY, 37° C., overnight.
Setting [7] is: Pantoea agglomerans JUB-CC-3253, TSY, 37° C., overnight.

`CC[C@H](C)C[C@H](C)CCCCCCCCC(=O)N[C@H]1C[C@@H](O)[C@@H](NCCN)NC(=O)[C@@H]2[C@@H](O)CCN2C(=O)[C@H]([C@H](O)CCN)NC(=O)[C@H]([C@H](O)[C@@H](O)c2ccc(O)cc2)NC(=O)[C@@H]2C[C@@H](O)CN2C(=O)[C@H]([C@@H](C)O)NC1=O` [Caspofungin, caspofungin]: the MIC with C. albicans is 0.5 µg/mL (≈ 0.457 µM).
As to `Clc1ccccc1C(c1ccccc1)(c1ccccc1)n1ccnc1` [Clotrimazole], the MIC with Botrytis cinerea (DSMZ877, Botrytis cinerea DSMZ 877, PDA, 24° C., overnight, read-out: Minimal inhibitory concentration) was found to be 6.25 µg/mL (≈ 18.1 µM); in the assay with Candida albicans (DSM1386, Candida albicans DSM 1386, YPD, 30° C., overnight, read-out: Minimal inhibitory concentration) it was 3.1 µg/mL (≈ 8.99 µM); with Leptosphaeria maculans (Plenodomus lingam, Leptosphaeria maculans SF 70, PDA, 18° C., overnight, read-out: Minimal inhibitory concentration), 0.4 µg/mL (≈ 1.16 µM); in the assay with Mycosphaerella pinodes (Didymella pinodes, DSMZ62763, Mycosphaerella pinodes DSMZ 62763, PDA, 30° C., overnight, read-out: Minimal inhibitory concentration), 3.1 µg/mL (≈ 8.99 µM); in the assay on Sclerotinia sclerotiorum (Sclerotinia sclerotiorum SF 79, PDA, 18° C., overnight, read-out: Minimal inhibitory concentration) it was 25 µg/mL (≈ 72.5 µM); in the assay on Verticillium dahliae (Verticillium dahliae SF 76, PDA, 28° C., overnight, read-out: Minimal inhibitory concentration), 1.56 µg/mL (≈ 4.52 µM). For the same molecule, the MIC in the assay with Ceratosystis paradoxa (Ceratosystis paradoxa DSMZ 63054, PDA, 18° C., overnight, read-out: Minimal inhibitory concentration) was 0.4 µg/mL (≈ 1.16 µM).
In the case of `[H]/N=C(/N)N[C@H]1[C@H](O)[C@@H](O)[C@H](O[C@@H]2O[C@@H](C)[C@](O)(C=O)[C@H]2O[C@@H]2O[C@@H](CO)[C@H](O)[C@@H](O)[C@@H]2NC)[C@@H](N/C(N)=N\[H])[C@@H]1O` [Streptomycin], the MIC in the assay on Listeria monocytogenes [1] (DSM102976, Listeria monocytogenes DSM 102976, TSY, 37° C., overnight, read-out: Minimal inhibitory concentration) is 7.8 µg/mL (≈ 13.4 µM); in [2] (DSM 11729 / MRSA, Staphylococcus aureus MRSA DSM 11729, TSY, 37° C., overnight, read-out: Minimal inhibitory concentration) it was > 125 µg/mL.
Consider `CN(C)[C@@H]1C(O)=C(C(N)=O)C(=O)[C@@]2(O)C(O)=C3C(=O)c4c(O)cccc4[C@@](C)(O)[C@H]3C[C@@H]12` [Tetracycline, tetracycline], for which, in the assay on Listeria monocytogenes [3], the MIC was 1.6 µg/mL (≈ 3.6 µM).
With Gentamycin, the Minimal inhibitory concentration in the assay with Listeria monocytogenes [1] (setting [5]) amounted to 0.4 µg/mL; in assay [2] (setting [6]), 0.8 µg/mL; in the assay with Pantoea agglomerans (setting [7]), 1.56 µg/mL; in the assay on E. coli, 1 µg/mL.
Take “LQRQYQQCQGRCQEQQQGQREQQQCQRKCWEQYKEQERGEHENYHNHKKNRSEEEEGQQR (cysteines drawn unpaired) [SEQ ID No 7]”: the Minimal inhibitory concentration in the assay on Botrytis cinerea is 12.75 µg/mL; in the assay on Candida albicans it was 12.75 µg/mL; with Leptosphaeria maculans, 9.4 µg/mL; in the assay on Listeria monocytogenes [1], 13.6 µg/mL; in the assay on Mycosphaerella pinodes, 10.68 µg/mL; in the assay on Sclerotinia sclerotiorum, 23.5 µg/mL. The Minimal inhibitory concentration in [2] worked out at 13.6 µg/mL; in the assay on Verticillium dahliae it was 12.7 µg/mL; in the assay on Ceratosystis paradoxa, 4.7 µg/mL; in the assay with Pantoea agglomerans, 9.45 µg/mL.
In the case of “YERDPRQQYEQCQRRCESEATEEREQEQCEQRCEREYKEQQRQQEEE (cysteines drawn unpaired) [SEQ ID No 6]”, the Minimal inhibitory concentration worked out at 14.5 µg/mL in the assay with Botrytis cinerea; 13.1 µg/mL with Candida albicans; 37.9 µg/mL in the assay on Leptosphaeria maculans; 3.25 µg/mL in the assay on Listeria monocytogenes [1]; 13.12 µg/mL in the assay with Mycosphaerella pinodes; 27.2 µg/mL in the assay on Sclerotinia sclerotiorum. Besides, the Minimal inhibitory concentration was determined as 13 µg/mL in assay [2], 14.5 µg/mL in the assay with Verticillium dahliae, 4.8 µg/mL with Ceratosystis paradoxa and 7.9 µg/mL in the assay on Pantoea agglomerans.

B1: SEQ ID No 2: Cocoa vicilin-derived antimicrobial peptide of the invention, recombinant or synthetic, mass of 15.3 kDa (peptide)
chain: YGRKQYERDPRQQYEQCQRRCESEATEEREQEQCEQRCEREYKEQQRQQEEELQRQYQQCQGRCQEQQQGQREQQQCQRKCWEQYKEQERGEHENYHNHK
modifications: peptide according to an embodiment of the invention
notes: Cocoa vicilin-derived antimicrobial peptide of the invention, recombinant or synthetic, mass of 15.3 kDa
B1: the Minimal inhibitory concentration is 6.25 µg/mL in the assay on Botrytis cinerea (Botrytis cinerea DSMZ 877, PDA, 24° C., overnight); 3.1 µg/mL in the assay on Candida albicans (Candida albicans DSM 1386, YPD, 30° C., overnight); 6.25 µg/mL in the assay on Leptosphaeria maculans (Leptosphaeria maculans SF 70, PDA, 18° C., overnight); 7.1 µg/mL in the assay on Listeria monocytogenes [1] (setting [5]); 4.5 µg/mL in the assay on Mycosphaerella pinodes (Mycosphaerella pinodes DSMZ 62763, PDA, 30° C., overnight); 19.3 µg/mL with Sclerotinia sclerotiorum (Sclerotinia sclerotiorum SF 79, PDA, 18° C., overnight). In addition, the Minimal inhibitory concentration in assay [2] (setting [6]) was found to be 7.1 µg/mL; in the assay on Verticillium dahliae (Verticillium dahliae SF 76, PDA, 28° C., overnight), 3.1 µg/mL; in the assay with Ceratosystis paradoxa (Ceratosystis paradoxa DSMZ 63054, PDA, 18° C., overnight) it was 6.25 µg/mL; in the assay with Pantoea agglomerans (setting [7]), 1.9 µg/mL; in the assay on E. coli, 6.2 µg/mL. Also, the “efficiency compared with the prior art peptides” value in [4] was “more efficient than the prior art peptides”.
